Data from US20230053540A1, “TREATMENT OF LIVER INJURY” (Massachusetts Institute of Technology, priority 2019, published 2023).

Test system: hepatocytes
Experiment: Seq-Well scRNA-Seq of hepatocytes after APAP overdose (signature scores, DEG vs untreated)
Assay type: in vivo, mouse
[1] = A24 (24 h post-APAP) vs other clusters, Wilcox

SMILES: CC(=O)Nc1ccc(O)cc1 [APAP, acetaminophen]
- Vcam1 avg_logFC (A6 vs UT): 0.4574
- Vcam1 pct.1 (A6 vs UT): 0.134
- Vkorc1 avg_logFC (A6 vs UT): −0.4042
- Vkorc1 pct.1 (A6 vs UT): 0.296
- Vsig4 avg_logFC (A6 vs UT): 0.4833
- Vsig4 pct.1 (A6 vs UT): 0.117
- Wbp1l avg_logFC (A6 vs UT): 0.5535
- Wdr26 avg_logFC (A6 vs UT): 0.4325
- Wdr26 pct.1 (A6 vs UT): 0.549
- Wfdc17 avg_logFC (A6 vs UT): 0.4867
- Wfdc17 pct.1 (A6 vs UT): 0.177
- Xbp1 avg_logFC (A6 vs UT): 0.6032
- Xrn2 A6logFC (A6 vs UT): 0.2985
- Xrn2 avg_logFC (A6 vs UT): 0.2985
- Xrn2 pct.1 (A6 vs UT): 0.387
- Yap1 A6logFC (A6 vs UT): 0.3281
- Ythdc1 A6logFC (A6 vs UT): 0.2641
- Ythdc1 avg_logFC (A6 vs UT): 0.2641
- Ythdc1 pct.1 (A6 vs UT): 0.301
- Ywhag avg_logFC (A6 vs UT): 0.5824
- Zbtb20 avg_logFC (A6 vs UT): 0.4715
- Zbtb20 pct.1 (A6 vs UT): 0.566
- Zfand5 A6logFC (A6 vs UT): 0.2882
- Zfand5 avg_logFC (A6 vs UT): 0.2882
- Zfand5 pct.1 (A6 vs UT): 0.401
- Zfp106 A6logFC (A6 vs UT): 0.3369
- Zfp106 avg_logFC (A6 vs UT): 0.3369
- Zfp106 pct.1 (A6 vs UT): 0.391
- Zfp259 A6logFC (A6 vs UT): 0.2556
- Zfp259 avg_logFC (A6 vs UT): 0.2556
- Zfp259 pct.1 (A6 vs UT): 0.32
- mmu-mir-6240 avg_logFC (A6 vs UT): 1.101
- mt-Co2 avg_logFC (A6 vs UT): −1.105
- mt-Co3 avg_logFC (A6 vs UT): −0.7059
- mt-Co3 pct.1 (A6 vs UT): 0.346
- mt-Nd1 avg_logFC (A6 vs UT): −0.3883
- mt-Nd4 avg_logFC (A6 vs UT): −0.6388
- n-R5-8s1 avg_logFC (A6 vs UT): 0.7661
- avg_logFC AA474408 [1]: 0.4148
- avg_logFC Abca1 [1]: 0.3831
- avg_logFC Acly [1]: 0.4101
- avg_logFC Acox1 [1]: 0.2743
- avg_logFC Acsl4 [1]: 0.299
- avg_logFC Adh4 [1]: 0.392
- avg_logFC Ak3 [1]: 0.2505
- avg_logFC Aox3 [1]: 0.3489
- avg_logFC Arcn1 [1]: 0.3044
- avg_logFC Atp8b1 [1]: 0.361
- avg_logFC Atp11c [1]: 0.2568
- avg_logFC Atxn1 [1]: 0.325
- avg_logFC Calm1 [1]: 0.3702
- avg_logFC Calu [1]: 0.3005
- avg_logFC Canx [1]: 0.2771
- avg_logFC Cltc [1]: 0.3397
- avg_logFC Cmah [1]: 0.4243
- avg_logFC Copa [1]: 0.3334
- avg_logFC Cps1 [1]: 0.2775
- avg_logFC Ctnnb1 [1]: 0.329
- avg_logFC Cxcl1 [1]: 0.453
- avg_logFC Cyb5r3 [1]: 0.3097
- avg_logFC Ddost [1]: 0.2909
- avg_logFC Dhcr24 [1]: 0.2824
- avg_logFC Dnajb11 [1]: 0.3288
- avg_logFC Dnajc12 [1]: 0.3241
- avg_logFC Echdc1 [1]: 0.2818
- avg_logFC Edem1 [1]: 0.2675
- avg_logFC Efna1 [1]: 0.3161
- avg_logFC Eif4g1 [1]: 0.2763
- avg_logFC Eif4g2 [1]: 0.3515
- avg_logFC Eprs [1]: 0.2513
- avg_logFC Etnk1 [1]: 0.3194
- avg_logFC Fam120a [1]: 0.2583
- avg_logFC Fasn [1]: 0.2699
- avg_logFC Fndc3b [1]: 0.3202
- avg_logFC Fos [1]: 0.3632
- avg_logFC Gjb2 [1]: 0.2998
- avg_logFC Gm5424 [1]: 0.262
- avg_logFC Gm24245 [1]: 0.414
- avg_logFC Grlf1 [1]: 0.2556
- avg_logFC Hnf4a [1]: 0.255
- avg_logFC Hs3st3b1 [1]: 0.3219
- avg_logFC Hsd3b5 [1]: 0.3009
- avg_logFC Hsd17b2 [1]: 0.3231
- avg_logFC Hspa13 [1]: 0.342
- avg_logFC Ibtk [1]: 0.2959
- avg_logFC Il6st [1]: 0.3011
- avg_logFC Il13ra1 [1]: 0.2889
- avg_logFC Insig1 [1]: 0.4125
- avg_logFC Kmo [1]: 0.2687
- avg_logFC Lasp1 [1]: 0.2608
- avg_logFC Lgr4 [1]: 0.2572
- avg_logFC Lman1 [1]: 0.2518
- avg_logFC Lpgat1 [1]: 0.2525
- avg_logFC Lrg1 [1]: 0.3096
- avg_logFC Lrp1 [1]: 0.4837
- avg_logFC Lrrc59 [1]: 0.2688
- avg_logFC Met [1]: 0.2512
- avg_logFC Mlec [1]: 0.3405
- avg_logFC Mtss1 [1]: 0.2522
- avg_logFC Mtus1 [1]: 0.3125
- avg_logFC Mug2 [1]: 0.3166
- avg_logFC Nab1 [1]: 0.2601
- avg_logFC Nars [1]: 0.3127
- avg_logFC Nedd4 [1]: 0.3306
- avg_logFC Nr1d2 [1]: 0.3855
- avg_logFC Nr5a2 [1]: 0.2599
- avg_logFC Nrp1 [1]: 0.33
- avg_logFC Ostc [1]: 0.3082
- avg_logFC Pnpla7 [1]: 0.3966
- avg_logFC Prg4 [1]: 0.4007
- avg_logFC Prkd3 [1]: 0.3041
- avg_logFC Proz [1]: 0.28
- avg_logFC Pten [1]: 0.2663
- avg_logFC Ptprf [1]: 0.2888
- avg_logFC Qsox1 [1]: 0.2818
- avg_logFC Rab1 [1]: 0.3145
- avg_logFC Rdx [1]: 0.276
- avg_logFC Rpn1 [1]: 0.3992
- avg_logFC Rrbp1 [1]: 0.2968
- avg_logFC Sdf2l1 [1]: 0.3078
- avg_logFC Sec31a [1]: 0.2596
- avg_logFC Sec61b [1]: 0.3008
- avg_logFC Sel1l [1]: 0.2833
- avg_logFC Sh3bgrl [1]: 0.2668
- avg_logFC Slc3a1 [1]: 0.3074
- avg_logFC Slc38a10 [1]: 0.2557
- avg_logFC Spcs3 [1]: 0.3907
- avg_logFC Srebf1 [1]: 0.3149
- avg_logFC Srp72 [1]: 0.28
- avg_logFC Srpr [1]: 0.2914
- avg_logFC Ssr1 [1]: 0.3129
- avg_logFC Stard4 [1]: 0.2922
- avg_logFC Stt3b [1]: 0.2648
- avg_logFC Tmed7 [1]: 0.3715
- avg_logFC Tmem30a [1]: 0.3056
- avg_logFC Trip12 [1]: 0.2832
- avg_logFC Txndc5 [1]: 0.2758
- avg_logFC Uggt1 [1]: 0.2805
- avg_logFC Uso1 [1]: 0.3202
- avg_logFC Usp4 [1]: 0.2959
- avg_logFC Usp9x [1]: 0.3387
- avg_logFC Zbtb20 [1]: 0.3135
- Atp11c A24logFC (A24 vs UT): 0.2605
- Brd2 A24logFC (A24 vs UT): 0.2664
- Caprin1 A24logFC (A24 vs UT): 0.2628
- Copz1 A24logFC (A24 vs UT): 0.2577
- Ctsc A24logFC (A24 vs UT): 0.3004
- Ddost A24logFC (A24 vs UT): 0.2504
- Deptor A24logFC (A24 vs UT): 0.2606
- Eif4b A24logFC (A24 vs UT): 0.256
- Fasn A24logFC (A24 vs UT): 0.2914
- Gm20594 A24logFC (A24 vs UT): −0.36
- Lasp1 A24logFC (A24 vs UT): 0.253
- Proz A24logFC (A24 vs UT): 0.2632
- Rnf13 A24logFC (A24 vs UT): 0.2553
- Ubb A24logFC (A24 vs UT): −0.2593
- avg_logFC 1110008F13Rik (A24 vs untreated (UT)): −0.4553
- avg_logFC AA474408 (A24 vs untreated (UT)): 0.4364
- avg_logFC Aadac (A24 vs untreated (UT)): −0.4038
- avg_logFC Abca1 (A24 vs untreated (UT)): 0.4394
- avg_logFC Acaa1b (A24 vs untreated (UT)): −0.8508
- avg_logFC Acot1 (A24 vs untreated (UT)): −0.2862
- avg_logFC Acox1 (A24 vs untreated (UT)): 0.2752
- avg_logFC Acsl1 (A24 vs untreated (UT)): −0.3703
- avg_logFC Acsl4 (A24 vs untreated (UT)): 0.3147
- avg_logFC Actb (A24 vs untreated (UT)): 0.3845
- avg_logFC Adh1 (A24 vs untreated (UT)): −0.342
- avg_logFC Adh4 (A24 vs untreated (UT)): 0.3769
- avg_logFC Ahcy (A24 vs untreated (UT)): −0.563
- avg_logFC Ak3 (A24 vs untreated (UT)): 0.289
- avg_logFC Akr1c6 (A24 vs untreated (UT)): −0.3176
- avg_logFC Alas1 (A24 vs untreated (UT)): −0.4898
- avg_logFC Aldh3a2 (A24 vs untreated (UT)): −0.3008
- avg_logFC Ankrd55 (A24 vs untreated (UT)): −1.874
- avg_logFC Aox3 (A24 vs untreated (UT)): 0.2878
- avg_logFC Apcs (A24 vs untreated (UT)): 0.6067
- avg_logFC Apoa2 (A24 vs untreated (UT)): −0.5455
- avg_logFC Apoa5 (A24 vs untreated (UT)): −0.299
- avg_logFC Apob (A24 vs untreated (UT)): 0.4272
- avg_logFC Apoc1 (A24 vs untreated (UT)): −0.3803
- avg_logFC Apoc3 (A24 vs untreated (UT)): −0.4404
- avg_logFC Apoc4 (A24 vs untreated (UT)): −0.4285
- avg_logFC Apoe (A24 vs untreated (UT)): −0.4213
- avg_logFC Arcn1 (A24 vs untreated (UT)): 0.3278
- avg_logFC Arrdc3 (A24 vs untreated (UT)): 0.5269
- avg_logFC Atp8b1 (A24 vs untreated (UT)): 0.3628
- avg_logFC Atp5h (A24 vs untreated (UT)): −0.5795
- avg_logFC Atxn1 (A24 vs untreated (UT)): 0.3049
- avg_logFC B2m (A24 vs untreated (UT)): −0.418
- avg_logFC BC025446 (A24 vs untreated (UT)): 0.2942
- avg_logFC Bhmt (A24 vs untreated (UT)): −0.5202
- avg_logFC C3 (A24 vs untreated (UT)): 0.4495
- avg_logFC C8a (A24 vs untreated (UT)): 0.3337
- avg_logFC C8b (A24 vs untreated (UT)): 0.3187
- avg_logFC C8g (A24 vs untreated (UT)): −0.482
- avg_logFC Calm1 (A24 vs untreated (UT)): 0.4131
- avg_logFC Calr (A24 vs untreated (UT)): 0.5551
- avg_logFC Calu (A24 vs untreated (UT)): 0.3041
- avg_logFC Canx (A24 vs untreated (UT)): 0.3434
- avg_logFC Cat (A24 vs untreated (UT)): 0.2626
- avg_logFC Cebpb (A24 vs untreated (UT)): −0.4716
- avg_logFC Ces1c (A24 vs untreated (UT)): −0.2783
